Test results published in patent US9976141B2, “Compositions and methods for inhibiting gene expression of Hif2alpha” (Arrowhead Madison Inc., priority 2015, dated 2018).
Strand notation (5' to 3'): a small letter for the sugar, then the base; units joined by * are phosphorothioate-linked, units joined directly phosphodiester-linked; [ ] holds rarer units or linkages, { } end groups; capitals alone tell only the bases. d = 2'-deoxy (DNA); m = 2'-O-methyl; f = 2'-fluoro

System: human EPAS1 (Hif2α) cDNA in psiCHECK2 (Renilla luciferase/EPAS1 fusion mRNA) in Hep3B cells
Test: Efficacy screen of Hif2α RNAi triggers in vitro, dual-luciferase reporter assay (1 nM and 0.1 nM)
Type: cell-based
Settings: Hep3B cells co-transfected with EPAS1-psiCHECK2, Renilla luciferase normalized to firefly luciferase
Method in brief: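 Knockdown read by dual-luciferase assay: Renilla signal from the Renilla/EPAS1 fusion transcript divided by firefly luciferase expressed from the same plasmid. Triggers (modified canonical siRNAs, 1 nM or 0.1 nM) were co-transfected with 25 ng reporter plasmid per well into human hepatocellular carcinoma Hep3B cells.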

Substance	Relative Rluc-Hif2α (0.1 nM RNAi trigger)	Relative Rluc-Hif2α (1 nM RNAi trigger)
2397 (sense fAmCfCmCfUmAfCmCfUmGfUmCfAmAfCmGfUmAfAdT; antisense dTfUmAfCmGfUmUfGmAfCmAfGmGfUmAfGmGfGmUdT*dT; siRNA) [compound 2397]	0.254 ± 0.048	0.119 ± 0.024
2326 (sense fCmUfAmCfAmGfCmCfUmGfUmCfGmUfCmAfGmCfAdT; antisense dTfGmCfUmGfAmCfGmAfCmAfGmGfCmUfGmUfAmGdT*dT; siRNA) [compound 2326]	0.660 ± 0.114	0.546 ± 0.083
2305 (sense fGmCfCmGfGmAfAmGfCmAfAmAfGmCfAmUfCmCfAdT; antisense dTfGmGfAmUfGmCfUmUfUmGfCmUfUmCfCmGfGmCdT*dT; siRNA) [compound 2305]	0.961 ± 0.120	0.992 ± 0.217
2331 (sense fGmGfUmGfAmAfCmGfUmGfCmCfCmGfUmGfCmUfAdT; antisense dTfAmGfCmAfCmGfGmGfCmAfCmGfUmUfCmAfCmCdT*dT; siRNA) [compound 2331]	1.002 ± 0.321	0.783 ± 0.080
2265 (sense fAmGfAmAfCmUfGmAfUmUfGmGfUmUfAmCfCmAfAdT; antisense dTfUmGfGmUfAmAfCmCfAmAfUmCfAmGfUmUfCmUdT*dT; siRNA) [compound 2265]	0.448 ± 0.042	0.186 ± 0.045
2347 (sense fUmUfAmUfAmUfCmUfGmGfGmUfUmAfAmGfUmGfAdT; antisense dTfCmAfCmUfUmAfAmCfCmCfAmGfAmUfAmUfAmAdT*dT; siRNA) [compound 2347]	0.753 ± 0.092	0.530 ± 0.040
2367 (sense fGmCfAmCfGmUfUmGfUmGfGmGfGmUfCmGfGmGfAdT; antisense dTfCmCfCmGfAmCfCmCfCmAfCmAfAmCfGmUfGmCdT*dT; siRNA) [compound 2367]	0.665 ± 0.064	0.376 ± 0.039
2329 (sense fCmUfGmAfCmCfAmGfAmUfAmUfGmAfCmUfGmUfAdT; antisense dTfAmCfAmGfUmCfAmUfAmUfCmUfGmGfUmCfAmGdT*dT; siRNA) [compound 2329]	0.807 ± 0.117	0.456 ± 0.064
2358 (sense fAmCfAmAfUmCfCmGfAmGfCmAfGmUfGmGfAmGfAdT; antisense dTfCmUfCmCfAmCfUmGfCmUfCmGfGmAfUmUfGmUdT*dT; siRNA) [compound 2358]	0.647 ± 0.113	0.731 ± 0.123
2274 (sense fAmUfGmCfGmCfUmAfGmAfCmUfCmCfGmAfGmAfAdT; antisense dTfUmCfUmCfGmGfAmGfUmCfUmAfGmCfGmCfAmUdT*dT; siRNA) [compound 2274]	0.870 ± 0.108	0.506 ± 0.074
2409 (sense fUmUfAmUfAmUfUmGfUmCfGmAfAmUfUmCfCmUfAdT; antisense dTfAmGfGmAfAmUfUmCfGmAfCmAfAmUfAmUfAmAdT*dT; siRNA) [compound 2409]	0.301 ± 0.085	0.104 ± 0.020
2351 (sense fGmUfCmGfGmCfUmUfUmUfUmGfCmCfAmUfCmUfAdT; antisense dTfAmGfAmUfGmGfCmAfAmAfAmAfGmCfCmGfAmCdT*dT; siRNA) [compound 2351]	1.216 ± 0.415	1.306 ± 0.216
2257 (sense fGmGfAmUfGmAfAmGfUmGfCmAfCmGfGmUfCmAfAdT; antisense dTfUmGfAmCfCmGfUmGfCmAfCmUfUmCfAmUfCmCdT*dT; siRNA) [compound 2257]	0.647 ± 0.127	0.802 ± 0.044
2299 (sense fAmGfUmAfCmCfCmAfGmAfCmGfGmAfUmUfUmCfAdT; antisense dTfGmAfAmAfUmCfCmGfUmCfUmGfGmGfUmAfCmUdT*dT; siRNA) [compound 2299]	0.907 ± 0.171	0.827 ± 0.067
2289 (sense fUmUfUmGfAmUfAmGfCmAfGmUfGmGfCmAfAmGfAdT; antisense dTfCmUfUmGfCmCfAmCfUmGfCmUfAmUfCmAfAmAdT*dT; siRNA) [compound 2289]	0.992 ± 0.153	1.039 ± 0.146
2328 (sense fGmCfAmUfGmGfCmAfAmGfCmCfGmGfCmUfGmCfAdT; antisense dTfGmCfAmGfCmCfGmGfCmUfUmGfCmCfAmUfGmCdT*dT; siRNA) [compound 2328]	1.291 ± 0.109	1.192 ± 0.144
2282 (sense fCmGfCmAfAmAfGmCfAmUfGmGfGmGfGmCfUmAfAdT; antisense dTfUmAfGmCfCmCfCmCfAmUfGmCfUmUfUmGfCmGdT*dT; siRNA) [compound 2282]	1.209 ± 0.132	0.824 ± 0.155
2262 (sense fUmCfCmUfCmAfCmAfAmUfAmGfUmCfUmGfUmGfAdT; antisense dTfCmAfCmAfGmAfCmUfAmUfUmGfUmGfAmGfGmAdT*dT; siRNA) [compound 2262]	0.755 ± 0.031	0.277 ± 0.071
2340 (sense fGmUfCmAfAmCfUmCfCmAfAmCfGmUfAmUfGmUfAdT; antisense dTfAmCfAmUfAmCfGmUfUmGfGmAfGmUfUmGfAmCdT*dT; siRNA) [compound 2340]	0.920 ± 0.114	0.444 ± 0.039
2353 (sense fUmGfCmCfAmUfAmGfGmUfGmUfGmAfCmAfAmUfAdT; antisense dTfAmUfUmGfUmCfAmCfAmCfCmUfAmUfGmGfCmAdT*dT; siRNA) [compound 2353]	0.635 ± 0.156	0.324 ± 0.075
2280 (sense fUmAfCmCfGmGfAmUfGmCfUmCfGmCfAmAfAmGfAdT; antisense dTfCmUfUmUfGmCfGmAfGmCfAmUfCmCfGmGfUmAdT*dT; siRNA) [compound 2280]	0.871 ± 0.147	0.911 ± 0.086
2373 (sense fGmAfGmCfUmAfUmGfUmGfAmCfUmCfGmGfAmUfAdT; antisense dTfAmUfCmCfGmAfGmUfCmAfCmAfUmAfGmCfUmCdT*dT; siRNA) [compound 2373]	0.369 ± 0.082	0.162 ± 0.032
2371 (sense fUmUfAmAfGmGfUmUfUmUfGmUfUmGfCmUfAmGfAdT; antisense dTfCmUfAmGfCmAfAmCfAmAfAmAfCmCfUmUfAmAdT*dT; siRNA) [compound 2371]	0.193 ± 0.030	0.166 ± 0.037
2349 (sense fAmCfGmGfCmCfUmGfUmAfCmGfGmAfCmAfCmUfAdT; antisense dTfAmGfUmGfUmCfCmGfUmAfCmAfGmGfCmCfGmUdT*dT; siRNA) [compound 2349]	0.674 ± 0.172	0.504 ± 0.062
2293 (sense fUmGfCmUfCmCfAmCfGmCfCmCfAmAfUmAfGmCfAdT; antisense dTfGmCfUmAfUmUfGmGfGmCfGmUfGmGfAmGfCmAdT*dT; siRNA) [compound 2293]	1.010 ± 0.045	0.925 ± 0.126
